Legend:
Assay type in all cases: biochemical
Conditions in all cases: 1 μM inhibitor concentration
[1] = biological target: PKCa (Homo sapiens (Human), UniProt P17252); assay: PKCa kinase selectivity assay
Experimental: PKCa (5-20 mU diluted in 20 mM Hepes pH 7.4, 0.03% Triton X-100) is assayed against Histone H1 in the presence of PtdSerine and DAG (0.1 mg/ml. and 10 μg/ml) and 0.1 mM CaCl2. The assay is carried out in a final volume of 25.5 μl containing 20 mM Hepes pH 7.4, 0.03% Triton X-100, 0.1 mg/ml Histone H1, 10 mM magnesium acetate and 0.02 mM[33P-g-ATP] (50-1000 cpm/pmole) and incubated for 30 min at room temperature. Assays are stopped by addition of 5 μl of 0.5 M (3%) orthophosphoric acid and then harvested onto P81 Unifilter plates with a wash buffer of 50 mM orthophosphoric acid.
PtdSer/DAG preparation:—PtdSer stock=10 mg/ml in MeOH/Chloroform (1:2). Dry down required amount. Resuspend in appropriate volume of 10 mM Hepes pH 7.4. Vortex and briefly sonicate. (2×10-15 seconds at 10-15 seconds apart). DAG stock=10 mg/ml in MeOH/chloroform (1:2). Dry down required amount. Add sonicated PtdSer solution. Vortex and sonicate.

[2] = biological target: GSK3b (Homo sapiens (Human), UniProt P49841); assay: GSK3b kinase selectivity assay
Experimental: GSK3b (5-20 mU diluted in 20 mM MOPS pH 7.5, 1 mM EDTA, 0.01% Brij35, 5% glycerol, 0.1% b-mercaptoethanol, 1 mg/ml BSA) is assayed against Phospho-GS2 peptide ([…](PO4)EDEEE) in a final volume of 25.5 μl containing 8 mM MOPS pH 7.0, 0.2 mM EDTA, 20 μM Phospho GS2 peptide, 10 mM magnesium acetate and 0.005 mM [33P-g-ATP] (50-1000 cpm/pmole) and incubated for 30 min at room temperature. Assays are stopped by addition of 5 μl of 0.5 M (3%) orthophosphoric acid and then harvested onto P81 Unifilter plates with a wash buffer of 50 mM orthophosphoric acid.

[3] = biological target: CHK1 (Homo sapiens (Human), UniProt O14757); assay: CHK1 kinase selectivity assay
Experimental: CHK1 (5-20 mU diluted in 20 mM MOPS pH 7.5, 1 mM EDTA, 0.1% b-mercaptoethanol, 0.01% Brij-35, 5% glycerol, 1 mg/ml BSA) is assayed against CHKtide substrate peptide ([…]) in a final volume of 25.5 μl containing 8 mM MOPS pH 7.0, 0.2 mM EDTA, 200 μM CHKtide, 10 mM magnesium acetate and 0.02 mM [33P-g-ATP](50-1000 cpm/pmole) and incubated for 30 min at room temperature Assays are stopped by addition of 5 μl of 0.5 M (3%) orthophosphoric acid and then harvested onto P81 Unifilter plates with a wash buffer of 50 mM orthophosphoric acid.

[4] = biological target: CDK2-CyclinA (Homo sapiens (Human), UniProt P24941); assay: CDK2-CyclinA kinase selectivity assay
Experimental: CDK2/cyclin A (5-20 mU diluted in 50 mM Hepes pH 7.5, 1 mM DTT, 0.02% Brij35, 100 mM NaCl) is assayed against Histone H1 in a final volume of 25.5 μl containing 50 mM Hepes pH7.5, 1 mM DTT, 0.02% Brij35, 100 mM NaCl, Histone H1 (1 mg/ml), 10 mM magnesium acetate and 0.02 mM [33P-g-ATP](500-1000 cpm/pmole) and incubated for 30 min at room temperature. Assays are stopped by addition of 5 μl of 0.5 M (3%) orthophosphoric acid and then harvested onto P81 Unifilter plates with a wash buffer of 50 mM orthophosphoric acid.

[5] = biological target: PRK2 (Homo sapiens (Human), UniProt Q16513); assay: PRK2 kinase selectivity assay
Experimental: 5-20 mU of PRK2 (diluted in 50 mM Tris (pH 7.5), 0.1 mM EGTA, 1 mg/ml BSA, 0.1%, b-Mercaptoethanol) is assayed against Long S6 peptide ([…]) in a final volume of 25.5 μl containing 50 mM Tris (pH 7.5), 0.1 mM EGTA, 0.1%, b-Mercaptoethanol, 30 μM Long S6 peptide, 10 mM magnesium acetate and 0.005 mM [33P-g-ATP](500-1000 cpm/pmole) and incubated for 30 mins at room temperature. Assays are stopped by addition of 5 μl of 0.5M (3%) orthophosphoric acid. Assays are harvested onto P81 Unifilter plates using a wash buffer of 50 mM orthophosphoric acid.

[6] = biological target: MKK1 (Homo sapiens (Human), UniProt Q02750); assay: MKK1 kinase selectivity assay
Experimental: After incubating at room temperature for 30 min, 5 μl from the first reaction is pipetted into 20 μl of the second reaction mix containing (final concentration) 25 mM Tris pH 7.5, 0.1 mM EGTA, 0.1 mM Na3VO4, 0.66 mg/ml myelin basic protein (MBP), 10 mM magnesium acetate and 0.05 mM [33P-g-ATP] (500-1000 cpm/pmole) and incubated for 30 min at room temperature. Assays are stopped by addition of 5 μl of 0.5 M (3%) orthophosphoric acid and then harvested onto P81 Unifilter plates with a wash buffer of 50 mM orthophosphoric acid.

[7] = biological target: AuroraA (Homo sapiens (Human), UniProt O14965); assay: AuroraA kinase selectivity assay
Experimental: Aurora A (5-20 mU diluted in 50 mM Tris pH 7.5, 0.1 mM EGTA, 0.1% β-mercaptoethanol, 1 mg/ml BSA) is assayed against […] in a final volume of […] containing 50 mM Tris pH 7.5, 0.1 mM EGTA, 0.3 mM […] 10 mM magnesium acetate and 0.005 mM [33P-γ-ATP](50-1000 cpm/pmole) and incubated for 30 min at room temperature. Assays are stopped by addition of 5 μl of 0.5 M (3%) orthophosphoric acid and then harvested onto P81 Unifilter plates with a wash buffer of 50 mM orthophosphoric acid.

[8] = biological target: EF2K (Homo sapiens (Human), UniProt O00418); assay: EF2K kinase selectivity assay
Experimental: EF2K (5-20 mU diluted in 50 mM Hepes pH 6.6, 0.1% b-mercaptoethanol, 1 mg/ml BSA) is assayed against a substrate peptide ([…]) in a final volume of 25.5 μl containing 50 mM Hepes pH 6.6, 0.2 mM CaCl2, 0.3 μM Calmodulin, 0.05% b-mercaptoethanol, 300 μM substrate peptide, 10 mM magnesium acetate and 0.005 mM [33P-g-ATP] (50-1000 cpm/pmole) and incubated for 30 min at room temperature. Assays are stopped by addition of 5 μl of 0.5 M (3%) orthophosphoric acid and then harvested onto P81 Unifilter plates with a wash buffer of 50 mM orthophosphoric acid.

Sequence of MKK1 (Q02750 whole entry, species assumed): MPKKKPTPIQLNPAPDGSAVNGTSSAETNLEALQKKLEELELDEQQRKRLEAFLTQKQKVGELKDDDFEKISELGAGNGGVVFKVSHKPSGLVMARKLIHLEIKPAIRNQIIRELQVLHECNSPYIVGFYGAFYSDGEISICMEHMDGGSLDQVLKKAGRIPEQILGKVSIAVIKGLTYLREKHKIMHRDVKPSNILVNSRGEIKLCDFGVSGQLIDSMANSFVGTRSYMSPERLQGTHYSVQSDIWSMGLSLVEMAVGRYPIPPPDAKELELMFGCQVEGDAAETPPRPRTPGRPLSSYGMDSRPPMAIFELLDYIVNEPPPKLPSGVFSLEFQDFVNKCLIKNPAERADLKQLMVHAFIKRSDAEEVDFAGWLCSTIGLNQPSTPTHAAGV
Sequence of PRK2 (Q16513 whole entry, species assumed): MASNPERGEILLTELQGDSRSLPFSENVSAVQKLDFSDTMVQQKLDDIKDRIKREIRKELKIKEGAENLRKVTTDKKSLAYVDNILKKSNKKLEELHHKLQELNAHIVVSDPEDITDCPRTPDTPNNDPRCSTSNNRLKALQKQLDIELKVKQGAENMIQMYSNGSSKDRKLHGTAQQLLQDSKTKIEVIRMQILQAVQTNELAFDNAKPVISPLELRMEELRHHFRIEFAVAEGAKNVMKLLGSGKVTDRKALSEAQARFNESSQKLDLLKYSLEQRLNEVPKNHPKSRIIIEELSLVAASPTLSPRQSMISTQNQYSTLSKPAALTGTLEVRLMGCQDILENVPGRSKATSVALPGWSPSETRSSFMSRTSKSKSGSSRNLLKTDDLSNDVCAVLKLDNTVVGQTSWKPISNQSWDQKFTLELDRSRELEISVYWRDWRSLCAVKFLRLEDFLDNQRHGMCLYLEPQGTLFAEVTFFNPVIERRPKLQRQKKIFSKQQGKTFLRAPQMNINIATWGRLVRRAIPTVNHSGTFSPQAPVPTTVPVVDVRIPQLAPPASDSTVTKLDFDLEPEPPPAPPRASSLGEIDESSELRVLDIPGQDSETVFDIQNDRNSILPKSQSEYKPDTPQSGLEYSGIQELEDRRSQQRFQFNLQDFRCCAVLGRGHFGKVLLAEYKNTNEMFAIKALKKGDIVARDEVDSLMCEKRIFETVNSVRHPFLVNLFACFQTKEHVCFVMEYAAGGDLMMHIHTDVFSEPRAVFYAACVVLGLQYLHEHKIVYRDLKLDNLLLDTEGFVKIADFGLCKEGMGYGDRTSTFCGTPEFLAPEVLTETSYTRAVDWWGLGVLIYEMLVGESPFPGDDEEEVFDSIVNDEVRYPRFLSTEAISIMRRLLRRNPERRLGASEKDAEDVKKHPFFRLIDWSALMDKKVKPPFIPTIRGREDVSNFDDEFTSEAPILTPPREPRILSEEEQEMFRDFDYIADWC
Sequence of GSK3b (P49841 whole entry, species assumed): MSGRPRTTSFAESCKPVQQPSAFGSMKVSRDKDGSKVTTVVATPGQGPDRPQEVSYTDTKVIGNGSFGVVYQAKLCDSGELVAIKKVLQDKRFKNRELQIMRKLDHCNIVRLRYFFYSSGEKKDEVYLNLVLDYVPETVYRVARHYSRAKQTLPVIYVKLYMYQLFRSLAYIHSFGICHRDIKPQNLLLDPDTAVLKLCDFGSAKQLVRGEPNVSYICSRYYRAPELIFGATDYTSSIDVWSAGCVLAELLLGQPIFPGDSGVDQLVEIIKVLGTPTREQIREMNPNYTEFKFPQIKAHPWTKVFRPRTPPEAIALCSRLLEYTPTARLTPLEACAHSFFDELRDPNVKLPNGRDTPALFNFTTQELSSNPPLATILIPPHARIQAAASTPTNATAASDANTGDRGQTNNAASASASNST
Sequence of AuroraA (O14965 whole entry): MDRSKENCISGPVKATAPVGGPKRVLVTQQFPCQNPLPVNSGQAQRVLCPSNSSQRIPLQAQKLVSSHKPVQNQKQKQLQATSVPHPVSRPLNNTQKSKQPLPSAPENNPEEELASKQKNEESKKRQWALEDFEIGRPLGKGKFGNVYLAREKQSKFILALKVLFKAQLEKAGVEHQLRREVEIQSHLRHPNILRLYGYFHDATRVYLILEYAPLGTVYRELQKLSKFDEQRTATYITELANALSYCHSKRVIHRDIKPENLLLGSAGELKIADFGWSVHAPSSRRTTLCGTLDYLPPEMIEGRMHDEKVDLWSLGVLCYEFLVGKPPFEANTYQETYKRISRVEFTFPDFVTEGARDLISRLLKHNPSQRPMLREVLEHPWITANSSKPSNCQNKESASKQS
Sequence of CHK1 (O14757 whole entry, species assumed): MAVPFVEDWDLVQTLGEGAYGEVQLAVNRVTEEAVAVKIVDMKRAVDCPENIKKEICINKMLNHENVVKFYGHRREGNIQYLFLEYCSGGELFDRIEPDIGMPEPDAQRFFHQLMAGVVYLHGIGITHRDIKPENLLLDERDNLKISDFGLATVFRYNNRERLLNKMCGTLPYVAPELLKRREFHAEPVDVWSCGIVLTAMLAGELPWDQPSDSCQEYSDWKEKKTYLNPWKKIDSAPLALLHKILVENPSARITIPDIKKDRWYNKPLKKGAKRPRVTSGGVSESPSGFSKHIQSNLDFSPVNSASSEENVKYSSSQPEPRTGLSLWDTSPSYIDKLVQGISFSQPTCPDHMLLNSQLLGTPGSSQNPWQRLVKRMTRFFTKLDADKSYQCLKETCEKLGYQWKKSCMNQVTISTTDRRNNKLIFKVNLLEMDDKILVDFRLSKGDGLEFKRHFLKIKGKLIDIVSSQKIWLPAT

SMILES	percentage inhibition of PKCa [1]	percentage inhibition of GSK3b [2]	percentage inhibition of CHK1 [3]	percentage inhibition of CDK2-CyclinA [4]	percentage inhibition of PRK2 [5]	percentage inhibition of MKK1 [6]	percentage inhibition of AuroraA [7]	percentage inhibition of EF2K [8]
c1cc2[nH]nc3c2c(n1)N(C1CCC1)CCC3 [Example 22, 6-cyclobutyl-6,7,8,9-tetrahydro-2H-1,2,5,6-tetraazabenzo[cd]azulene]	0 percentage	16 percentage	2 percentage	16 percentage	2 percentage	15 percentage	0 percentage	0 percentage
c1cc2[nH]nc3c2c(n1)N(C1CCCC1)CCC3 [Example 23, 6-cyclopentyl-6,7,8,9-tetrahydro-2H-1,2,5,6-tetraazabenzo[cd]azulene]	0 percentage	0 percentage	0 percentage	0 percentage	0 percentage	0 percentage	0 percentage	0 percentage
c1cc2[nH]nc3c2c(n1)N(C1CCOCC1)CCC3 [Example 29, 6-(tetrahydro-2H-pyran-4-yl)-6,7,8,9-tetrahydro-2H-1,2,5,6-tetraazabenzo[cd]azulene]	11 percentage	0 percentage	0 percentage	30 percentage	0 percentage	21 percentage	0 percentage	0 percentage
CN1CCC(N2Cc3ccccc3-c3n[nH]c4ccnc2c34)CC1 [Example 55]	0 percentage	0 percentage	42 percentage	10 percentage	0 percentage	65 percentage	9 percentage	1 percentage
CC(C)n1ncc2c1CN(C1CCN(C)CC1)c1nccc3[nH]nc-2c13 [Example 68]	2 percentage	0 percentage	28 percentage	0 percentage	8 percentage	31 percentage	13 percentage	1 percentage

— patent US10918645B2 (LIFEARC, priority 2016, dated 2021)
